According to ChEMBL document CHEMBL5291721, “A preclinical secondary pharmacology resource illuminates target-adverse drug reaction associations of marketed drugs” (Nat Commun, 2023):

How the values were obtained:
Histamine H3 receptor = Histamine H3 receptor (Homo sapiens, UniProt Q9Y5N1)
[1] = biological target: T1, Muscarinic acetylcholine receptor M2 (Homo sapiens, UniProt P08172)
T1 sequence (P08172 whole entry): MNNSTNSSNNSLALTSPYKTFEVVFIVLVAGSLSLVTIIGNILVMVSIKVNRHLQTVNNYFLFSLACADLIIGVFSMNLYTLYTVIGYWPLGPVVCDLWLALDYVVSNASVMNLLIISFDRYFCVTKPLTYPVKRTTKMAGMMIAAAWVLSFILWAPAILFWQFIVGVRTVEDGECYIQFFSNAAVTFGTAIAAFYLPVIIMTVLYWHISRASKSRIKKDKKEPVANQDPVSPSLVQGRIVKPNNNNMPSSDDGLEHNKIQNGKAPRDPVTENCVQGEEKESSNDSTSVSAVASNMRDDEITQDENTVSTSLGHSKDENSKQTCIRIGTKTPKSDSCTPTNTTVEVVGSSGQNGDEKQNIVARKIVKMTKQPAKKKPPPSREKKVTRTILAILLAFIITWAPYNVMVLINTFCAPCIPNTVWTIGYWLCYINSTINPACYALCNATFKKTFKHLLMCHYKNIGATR

[2] = biological target: Voltage-gated inwardly rectifying potassium channel KCNH2 (Homo sapiens, UniProt Q12809); type: functional; conditions: read-out: AC50
Sequence of Voltage-gated inwardly rectifying potassium channel KCNH2 (Q12809 whole entry): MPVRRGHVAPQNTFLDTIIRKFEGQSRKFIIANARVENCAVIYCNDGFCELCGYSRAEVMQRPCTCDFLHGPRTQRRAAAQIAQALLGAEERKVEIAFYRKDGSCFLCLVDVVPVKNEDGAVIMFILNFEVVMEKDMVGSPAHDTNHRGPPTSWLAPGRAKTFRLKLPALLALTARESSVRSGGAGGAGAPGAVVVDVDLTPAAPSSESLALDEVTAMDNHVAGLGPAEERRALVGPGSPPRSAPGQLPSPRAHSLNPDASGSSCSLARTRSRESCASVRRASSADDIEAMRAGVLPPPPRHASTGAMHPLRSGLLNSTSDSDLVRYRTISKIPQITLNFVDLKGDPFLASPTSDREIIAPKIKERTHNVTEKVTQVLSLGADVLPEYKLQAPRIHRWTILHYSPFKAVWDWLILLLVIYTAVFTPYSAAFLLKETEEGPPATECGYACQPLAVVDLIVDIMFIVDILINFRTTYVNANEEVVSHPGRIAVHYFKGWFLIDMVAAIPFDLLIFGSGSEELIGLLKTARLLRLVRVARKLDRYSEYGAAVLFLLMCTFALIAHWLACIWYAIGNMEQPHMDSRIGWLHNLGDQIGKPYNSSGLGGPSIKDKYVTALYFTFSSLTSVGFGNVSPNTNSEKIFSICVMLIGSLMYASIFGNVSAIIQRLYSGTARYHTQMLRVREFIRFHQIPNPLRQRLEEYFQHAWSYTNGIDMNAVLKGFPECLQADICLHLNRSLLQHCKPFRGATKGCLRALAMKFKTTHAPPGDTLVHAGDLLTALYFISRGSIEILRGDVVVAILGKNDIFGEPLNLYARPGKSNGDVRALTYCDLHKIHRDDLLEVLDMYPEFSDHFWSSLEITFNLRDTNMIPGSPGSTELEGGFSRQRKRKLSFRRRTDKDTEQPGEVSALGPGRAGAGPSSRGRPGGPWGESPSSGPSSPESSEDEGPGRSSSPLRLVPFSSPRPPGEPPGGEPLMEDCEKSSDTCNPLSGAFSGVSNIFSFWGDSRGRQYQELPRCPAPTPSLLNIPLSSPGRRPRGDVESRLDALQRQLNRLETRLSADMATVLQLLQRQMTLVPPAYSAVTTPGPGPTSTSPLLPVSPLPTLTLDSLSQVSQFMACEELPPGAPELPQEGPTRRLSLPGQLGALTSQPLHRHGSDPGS

Estrogen receptor = biological target: T2, Estrogen receptor (Homo sapiens, UniProt P03372)
T2 sequence (P03372 whole entry): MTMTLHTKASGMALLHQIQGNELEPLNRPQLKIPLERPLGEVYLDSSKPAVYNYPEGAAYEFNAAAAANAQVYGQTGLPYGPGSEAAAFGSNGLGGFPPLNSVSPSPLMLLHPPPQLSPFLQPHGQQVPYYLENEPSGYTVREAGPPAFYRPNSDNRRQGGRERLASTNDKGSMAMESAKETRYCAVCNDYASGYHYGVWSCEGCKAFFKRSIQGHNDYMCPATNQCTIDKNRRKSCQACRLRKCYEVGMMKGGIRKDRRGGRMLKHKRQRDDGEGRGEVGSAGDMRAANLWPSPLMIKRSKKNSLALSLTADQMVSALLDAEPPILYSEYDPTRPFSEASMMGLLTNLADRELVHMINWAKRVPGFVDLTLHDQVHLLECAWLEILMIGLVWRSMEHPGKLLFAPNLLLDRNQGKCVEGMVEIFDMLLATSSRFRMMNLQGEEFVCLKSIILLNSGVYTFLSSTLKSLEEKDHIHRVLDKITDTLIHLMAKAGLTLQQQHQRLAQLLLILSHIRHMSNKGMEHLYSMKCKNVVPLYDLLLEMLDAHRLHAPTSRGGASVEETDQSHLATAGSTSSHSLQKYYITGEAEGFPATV

Adenosine receptor A2a = Adenosine receptor A2a (Homo sapiens, UniProt P29274)
Sequence of Adenosine receptor A2a (P29274 whole entry): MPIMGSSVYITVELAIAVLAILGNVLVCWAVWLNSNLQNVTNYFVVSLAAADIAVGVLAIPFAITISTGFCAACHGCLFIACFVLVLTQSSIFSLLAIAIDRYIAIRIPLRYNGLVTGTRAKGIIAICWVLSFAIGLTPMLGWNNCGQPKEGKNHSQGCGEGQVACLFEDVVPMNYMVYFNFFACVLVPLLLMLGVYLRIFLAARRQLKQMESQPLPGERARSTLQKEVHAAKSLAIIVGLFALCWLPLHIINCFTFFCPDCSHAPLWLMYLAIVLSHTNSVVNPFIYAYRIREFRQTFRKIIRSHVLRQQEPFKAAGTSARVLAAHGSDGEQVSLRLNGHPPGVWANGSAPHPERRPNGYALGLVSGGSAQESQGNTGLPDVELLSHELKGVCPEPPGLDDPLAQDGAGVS

[3] = biological target: T3, Alpha-2C adrenergic receptor (Homo sapiens, UniProt P18825); type: functional
T3 sequence (P18825 whole entry): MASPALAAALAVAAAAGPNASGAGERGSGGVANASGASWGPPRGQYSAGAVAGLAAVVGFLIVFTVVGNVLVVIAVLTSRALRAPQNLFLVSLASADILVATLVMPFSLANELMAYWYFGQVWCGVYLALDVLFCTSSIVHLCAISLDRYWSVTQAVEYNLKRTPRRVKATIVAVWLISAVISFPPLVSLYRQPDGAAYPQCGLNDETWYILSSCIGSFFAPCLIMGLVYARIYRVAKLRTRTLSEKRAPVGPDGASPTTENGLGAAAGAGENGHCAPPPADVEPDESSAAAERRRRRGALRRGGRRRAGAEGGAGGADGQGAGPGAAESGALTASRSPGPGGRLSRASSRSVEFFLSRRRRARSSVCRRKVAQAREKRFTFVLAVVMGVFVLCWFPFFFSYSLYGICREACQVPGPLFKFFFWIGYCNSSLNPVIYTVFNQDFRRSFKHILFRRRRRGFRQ

Vasopressin V1a receptor = Vasopressin V1a receptor (Homo sapiens, UniProt P37288)
Sequence of Vasopressin V1a receptor (P37288 whole entry): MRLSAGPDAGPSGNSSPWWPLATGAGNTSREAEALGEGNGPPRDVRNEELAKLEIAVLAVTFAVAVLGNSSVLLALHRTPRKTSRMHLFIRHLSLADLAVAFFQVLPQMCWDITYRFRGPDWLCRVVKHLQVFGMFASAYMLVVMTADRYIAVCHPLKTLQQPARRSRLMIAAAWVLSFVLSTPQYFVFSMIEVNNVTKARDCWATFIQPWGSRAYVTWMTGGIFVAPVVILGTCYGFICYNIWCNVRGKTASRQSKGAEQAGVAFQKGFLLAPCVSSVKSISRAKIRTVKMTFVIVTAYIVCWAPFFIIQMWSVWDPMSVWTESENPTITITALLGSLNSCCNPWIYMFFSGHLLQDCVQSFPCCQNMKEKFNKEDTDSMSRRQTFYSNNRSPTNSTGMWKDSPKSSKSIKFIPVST

[4] = biological target: Gamma-aminobutyric acid receptor subunit alpha-1 (Rattus norvegicus, UniProt P62813)
Sequence of Gamma-aminobutyric acid receptor subunit alpha-1 (P62813 whole entry): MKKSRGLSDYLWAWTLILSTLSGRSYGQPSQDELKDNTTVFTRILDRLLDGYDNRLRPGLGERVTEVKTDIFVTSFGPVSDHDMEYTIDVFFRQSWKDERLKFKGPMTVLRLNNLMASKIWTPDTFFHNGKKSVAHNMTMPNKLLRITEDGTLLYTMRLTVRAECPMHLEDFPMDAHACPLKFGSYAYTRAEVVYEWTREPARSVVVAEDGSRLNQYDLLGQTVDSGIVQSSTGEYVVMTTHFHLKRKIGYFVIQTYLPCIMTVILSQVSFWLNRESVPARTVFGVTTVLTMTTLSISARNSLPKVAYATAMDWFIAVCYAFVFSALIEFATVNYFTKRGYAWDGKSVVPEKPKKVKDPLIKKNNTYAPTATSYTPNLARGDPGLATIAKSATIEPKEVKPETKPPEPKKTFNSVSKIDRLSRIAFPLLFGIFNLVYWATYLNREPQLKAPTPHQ

[5] = biological target: Glutamate receptor ionotropic, NMDA 1 (Rattus norvegicus, UniProt P35439)
[6] = biological target: T4, Neuropeptide Y receptor type 1 (Homo sapiens, UniProt P25929)
T4 sequence (P25929 whole entry): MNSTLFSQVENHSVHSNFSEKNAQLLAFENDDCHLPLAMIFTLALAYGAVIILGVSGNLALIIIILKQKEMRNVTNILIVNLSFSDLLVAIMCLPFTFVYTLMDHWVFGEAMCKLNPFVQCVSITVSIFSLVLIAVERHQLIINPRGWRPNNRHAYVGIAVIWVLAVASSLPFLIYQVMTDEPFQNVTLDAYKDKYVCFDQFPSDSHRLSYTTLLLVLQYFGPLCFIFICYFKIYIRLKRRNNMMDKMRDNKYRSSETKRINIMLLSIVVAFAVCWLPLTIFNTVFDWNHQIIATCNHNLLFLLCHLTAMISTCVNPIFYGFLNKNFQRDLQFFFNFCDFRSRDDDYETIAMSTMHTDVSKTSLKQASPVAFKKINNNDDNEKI

[7] = biological target: T5, Prostaglandin G/H synthase 1 (Rattus norvegicus, UniProt Q63921); type: functional
T5 sequence (Q63921 whole entry): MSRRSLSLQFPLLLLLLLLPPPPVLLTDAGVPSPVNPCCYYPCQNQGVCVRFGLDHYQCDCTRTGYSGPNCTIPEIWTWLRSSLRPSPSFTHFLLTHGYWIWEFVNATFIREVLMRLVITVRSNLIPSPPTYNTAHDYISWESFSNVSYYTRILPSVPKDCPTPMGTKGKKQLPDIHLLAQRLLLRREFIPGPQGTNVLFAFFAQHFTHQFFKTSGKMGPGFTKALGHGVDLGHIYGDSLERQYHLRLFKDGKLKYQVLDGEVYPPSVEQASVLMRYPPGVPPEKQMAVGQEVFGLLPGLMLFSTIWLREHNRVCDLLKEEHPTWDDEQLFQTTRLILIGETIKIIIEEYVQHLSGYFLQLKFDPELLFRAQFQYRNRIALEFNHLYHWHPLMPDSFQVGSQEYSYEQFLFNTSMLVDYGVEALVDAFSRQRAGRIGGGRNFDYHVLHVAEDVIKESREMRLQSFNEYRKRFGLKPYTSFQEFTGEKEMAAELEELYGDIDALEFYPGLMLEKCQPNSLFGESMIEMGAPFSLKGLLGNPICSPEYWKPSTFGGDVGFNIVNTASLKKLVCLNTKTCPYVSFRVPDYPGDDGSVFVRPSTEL
Note: assay procedure not described here.

Sequence of Histamine H3 receptor (Q9Y5N1 whole entry): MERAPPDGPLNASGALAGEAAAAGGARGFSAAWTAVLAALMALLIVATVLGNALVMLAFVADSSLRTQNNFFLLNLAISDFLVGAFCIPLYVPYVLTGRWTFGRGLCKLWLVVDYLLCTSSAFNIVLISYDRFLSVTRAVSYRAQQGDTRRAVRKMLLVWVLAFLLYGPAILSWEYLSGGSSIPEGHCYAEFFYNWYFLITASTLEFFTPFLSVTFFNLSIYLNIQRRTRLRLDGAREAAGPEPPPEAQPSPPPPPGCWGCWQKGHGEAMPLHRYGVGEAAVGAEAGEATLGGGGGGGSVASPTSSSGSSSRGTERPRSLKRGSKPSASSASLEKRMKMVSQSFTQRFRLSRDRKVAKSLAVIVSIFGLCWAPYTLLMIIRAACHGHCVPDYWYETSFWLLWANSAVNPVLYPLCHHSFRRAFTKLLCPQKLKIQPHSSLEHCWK

Structure (SMILES)	AC50 (Histamine H3 receptor)	AC50 [1]	AC50 [2]	AC50 (Estrogen receptor)	AC50 (Adenosine receptor A2a)	AC50 [3]	AC50 (Vasopressin V1a receptor)	AC50 [4]	AC50 [5]	AC50 [6]	AC50 [7]
CN1CCC[C@@H]1Cc1c[nH]c2ccc(CCS(=O)(=O)c3ccccc3)cc12	5.7 µM										
COc1nccnc1NS(=O)(=O)c1ccc(N)cc1	> 30 µM	> 30 µM	> 30 µM								
O=C(Nc1cccc2c(=O)cc(-c3nnn[nH]3)oc12)c1ccc(OCCCCc2ccccc2)cc1	> 30 µM	> 30 µM									
NC(=O)c1nc(F)c[nH]c1=O	> 30 µM	> 30 µM	> 30 µM	> 30 µM							
CN(C)CCCN1C(=O)c2cc([N+](=O)[O-])ccc2Oc2ccccc21	> 30 µM	20.6 µM	> 30 µM	> 30 µM							
O=S(=O)(O)CCS [2-MERCAPTOETHANESULFONIC ACID]	> 30 µM	> 30 µM	> 30 µM	> 30 µM							
CC1(C)S[C@@H]2[C@H](NC(=O)[C@H](N)c3ccc(O)cc3)C(=O)N2[C@H]1C(=O)O [AMOXICILLIN]					> 30 µM	> 30 µM	> 30 µM	> 30 µM	> 30 µM	> 30 µM	> 30 µM
CNCC[C@@H](Oc1ccccc1C)c1ccccc1 [ATOMOXETINE]					> 30 µM	> 30 µM	> 30 µM				> 30 µM
CN(C)CCN(Cc1ccc(Cl)cc1)c1ccccn1 [CHLOROPYRAMINE]	> 30 µM	2.88 µM	0.54 µM								
Clc1cccc(Cl)c1N=C1NCCN1 [CLONIDINE]					> 30 µM		> 10 µM	> 10 µM	> 10 µM	> 30 µM	> 30 µM
N[C@@H](CSSC[C@H](N)C(=O)O)C(=O)O [CYSTINE]	> 30 µM	> 30 µM									
CN1C[C@H](C(=O)N[C@]2(C)O[C@@]3(O)[C@@H]4CCCN4C(=O)[C@H](Cc4ccccc4)N3C2=O)C[C@@H]2c3cccc4[nH]cc(c34)C[C@H]21 [DIHYDROERGOTAMINE]			10 µM		> 30 µM		> 30 µM	> 10 µM	> 10 µM	> 30 µM	> 30 µM
CNCC[C@H](Oc1cccc2ccccc12)c1cccs1 [DULOXETINE]					> 30 µM	1.4 µM	> 30 µM	> 10 µM	> 10 µM	> 30 µM	> 30 µM
